US8987195B2 (priority 2012, dated 2015)

Legend:
[1] = system: HCV genotype 1b replicon; assay: HCV replicon assay, genotype 1b replicon EC50; type: cell-based, Hepatitis C virus; settings: Hepatitis C virus, genotype 1b replicon; read-out: EC50 [gt-1b]
Procedure, shortened: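 Stable neomycin phosphotransferase-encoding replicon cell lines, kept under G418 selection beforehand, were plated with a compound dilution series without G418 and incubated 24-48 hours. Replicon RNA was then quantified, or luciferase activity read. EC50 was calculated as percent of DMSO control by four-parameter fit.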

[2] = target: HCV NS3/4A protease genotype 1b (Hepatitis C virus genotype 1b, UniProt P26663); assay: HCV NS3/4A protease time-resolved fluorescence (TRF) assay, Ki against genotype 1b; type: biochemical; settings: IC50 [gt-1b] (nM), NS3/4A genotype 1b, enzyme 0.2 nM
HCV NS3/4A protease genotype 1b, sequence (P26663 1027-1657): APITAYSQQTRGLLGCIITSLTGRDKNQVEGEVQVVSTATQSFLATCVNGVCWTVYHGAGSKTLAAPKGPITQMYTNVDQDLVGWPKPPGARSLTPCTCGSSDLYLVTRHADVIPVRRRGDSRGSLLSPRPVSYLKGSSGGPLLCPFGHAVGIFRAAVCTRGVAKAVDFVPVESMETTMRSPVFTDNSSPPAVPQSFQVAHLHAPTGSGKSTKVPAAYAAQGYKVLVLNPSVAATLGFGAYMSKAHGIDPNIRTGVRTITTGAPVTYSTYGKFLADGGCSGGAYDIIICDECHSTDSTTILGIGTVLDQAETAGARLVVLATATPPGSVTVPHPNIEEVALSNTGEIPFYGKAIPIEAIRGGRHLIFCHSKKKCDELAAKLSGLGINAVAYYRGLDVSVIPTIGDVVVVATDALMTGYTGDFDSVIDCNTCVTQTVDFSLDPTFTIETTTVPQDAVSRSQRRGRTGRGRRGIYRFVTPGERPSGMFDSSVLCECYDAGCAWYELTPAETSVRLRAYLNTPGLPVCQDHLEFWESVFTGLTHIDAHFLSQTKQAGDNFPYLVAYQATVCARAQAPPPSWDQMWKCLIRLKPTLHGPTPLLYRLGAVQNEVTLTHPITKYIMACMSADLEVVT
HCV NS3/4A protease genotype 1b, sequence (P26663 1658-1711): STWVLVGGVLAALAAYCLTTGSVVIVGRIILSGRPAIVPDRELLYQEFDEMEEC
Procedure, shortened: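 Ki values come from IC50 fits corrected for substrate concentration and KM. The time-resolved fluorescence protease reaction used 25 nM peptide substrate, 2.5 h, room temperature, pH 7.5 HEPES buffer, after 30 min enzyme–inhibitor preincubation.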

Row | SMILES | EC50 [1] [nM] | IC50 [2] [nM]
1 | CC1(OC(=O)N[C@H]2CCCCC/C=C\[C@@H]3C[C@@]3(C(=O)NS(=O)(=O)C3(C)CC3)NC(=O)[C@@H]3C[C@]4(CCc5c(c(C6CC6)nc6ccccc56)O4)CN3C2=O)CC1 [Example 102, 1-methylcyclopropyl [(2R,6S,12Z,13aS,14aR,16aS)-5′-cyclopropyl-14a-{[(1-methylcyclopropyl)sulfonyl]carbamoyl}-5,16-dioxo-1,1′,2′,5,6,7,8,9,10,11,13a,14,14a,15,16,16a-hexadecahydrospiro[cyclopropa[e]pyrrolo[1,2-a][1,4]diazacyclopentadecine-2,3′-pyrano[2,3-c]quinolin]-6-yl]carbamate] | 1.58 | 0.004
2 | CC(C)COC(=O)N[C@H]1CCCCC/C=C\[C@@H]2C[C@@]2(C(=O)NS(=O)(=O)C2(C)CC2)NC(=O)[C@@H]2C[C@]3(CCc4c(c(C5CC5)nc5ccccc45)O3)CN2C1=O [Example 103, 2-methylpropyl [(2R,6S,12Z,13aS,14aR,16aS)-5′-cyclopropyl-14a-{[(1-methylcyclopropyl)sulfonyl]carbamoyl}-5,16-dioxo-1,1′,2′,5,6,7,8,9,10,11,13a,14,14a,15,16,16a-hexadecahydrospiro[cyclopropa[e]pyrrolo[1,2-a][1,4]diazacyclopentadecine-2,3′-pyrano[2,3-c]quinolin]-6-yl]carbamate] | 1.51 | 0.012
3 | CC1(S(=O)(=O)NC(=O)[C@@]23C[C@H]2/C=C\CCCCC[C@H](NC(=O)OC2CCCC2)C(=O)N2C[C@@]4(CCc5c(c(C6CC6)nc6ccccc56)O4)C[C@H]2C(=O)N3)CC1 [Example 104, cyclopentyl [(2R,6S,12Z,13aS,14aR,16aS)-5′-cyclopropyl-14a-{[(1-methylcyclopropyl)sulfonyl]carbamoyl}-5,16-dioxo-1,1′,2′,5,6,7,8,9,10,11,13a,14,14a,15,16,16a-hexadecahydrospiro[cyclopropa[e]pyrrolo[1,2-a][1,4]diazacyclopentadecine-2,3′-pyrano[2,3-c]quinolin]-6-yl]carbamate] | 1.39 | 0.013
4 | Cc1nc2ccccc2c2c1O[C@]1(CC2)C[C@H]2C(=O)N[C@]3(C(=O)NS(=O)(=O)C4(C)CC4)C[C@H]3/C=C\CCCCC[C@H](NC(=O)OC(C)C)C(=O)N2C1 [Example 105, propan-2-yl [(2R,6S,12Z,13aS,14aR,16aS)-5′-methyl-14a-{[(1-methylcyclopropyl)sulfonyl]carbamoyl}-5,16-dioxo-1,1′,2′,5,6,7,8,9,10,11,13a,14,14a,15,16,16a-hexadecahydrospiro[cyclopropa[e]pyrrolo[1,2-a][1,4]diazacyclopentadecine-2,3′-pyrano[2,3-c]quinolin]-6-yl]carbamate] | 1.42 | 0.013
5 | Cc1nc2ccccc2c2c1O[C@@]1(C[C@H]3C(=O)N[C@]4(C(=O)NS(=O)(=O)C5(C)CC5)C[C@H]4/C=C\CCCCC[C@H](NC(=O)OCC(C)C)C(=O)N3C1)CC2(F)F [Example 106, 2-methylpropyl [(2S,6S,12Z,13aS,14aR,16aS)-1′,1′-difluoro-5′-methyl-14a-{[(1-methylcyclopropyl)sulfonyl]carbamoyl}-5,16-dioxo-1,1′,2′,5,6,7,8,9,10,11,13a,14,14a,15,16,16a-hexadecahydrospiro[cyclopropa[e]pyrrolo[1,2-a][1,4]diazacyclopentadecine-2,3′-pyrano[2,3-c]quinolin]-6-yl]carbamate] | 3.21 | 0.048
6 | Cc1nc2c(F)cccc2c2c1O[C@]1(CC2)C[C@H]2C(=O)N[C@]3(C(=O)NS(=O)(=O)C4CC4)C[C@H]3/C=C\CCCCC[C@H](NC(=O)OC(C)(C)C)C(=O)N2C1 [Example 107, tert-butyl {(2R,6S,12Z,13aS,14aR,16aS)-14a-[(cyclopropylsulfonyl)carbamoyl]-7′-fluoro-5′-methyl-5,16-dioxo-1,1′,2′,5,6,7,8,9,10,11,13a,14,14a,15,16,16a-hexadecahydrospiro[cyclopropa[e]pyrrolo[1,2-a][1,4]diazacyclopentadecine-2,3′-pyrano[2,3-c]quinolin]-6-yl}carbamate] | 3.48 | 0.014
7 | Cc1ccc2nc(C)c3c(c2c1)CC[C@]1(C[C@H]2C(=O)N[C@]4(C(=O)NS(=O)(=O)C5(C)CC5)C[C@H]4/C=C\CCCCC[C@H](NC(=O)OCC(C)C)C(=O)N2C1)O3 [Example 108, 2-methylpropyl [(2R,6S,12Z,13aS,14aR,16aS)-5′,9′-dimethyl-14a-{[(1-methylcyclopropyl)sulfonyl]carbamoyl}-5,16-dioxo-1,1′,2′,5,6,7,8,9,10,11,13a,14,14a,15,16,16a-hexadecahydrospiro[cyclopropa[e]pyrrolo[1,2-a][1,4]diazacyclopentadecine-2,3′-pyrano[2,3-c]quinolin]-6-yl]carbamate] | 1.23 | 0.007
8 | Cc1ccc2nc(C)c3c(c2c1)CC[C@]1(C[C@H]2C(=O)N[C@]4(C(=O)NS(=O)(=O)C5(C)CC5)C[C@H]4/C=C\CCCCC[C@H](NC(=O)OC(C)C)C(=O)N2C1)O3 [Example 109, propan-2-yl [(2R,6S,12Z,13aS,14aR,16aS)-5′,9′-dimethyl-14a-{[(1-methylcyclopropyl)sulfonyl]carbamoyl}-5,16-dioxo-1,1′,2′,5,6,7,8,9,10,11,13a,14,14a,15,16,16a-hexadecahydrospiro[cyclopropa[e]pyrrolo[1,2-a][1,4]diazacyclopentadecine-2,3′-pyrano[2,3-c]quinolin]-6-yl]carbamate] | 0.944 | 0.011
9 | CC(C)COC(=O)N[C@H]1CCCCC/C=C\[C@@H]2C[C@@]2(C(=O)NS(=O)(=O)C2(C)CC2)NC(=O)[C@@H]2C[C@]3(CCc4c(cnc5ccccc45)O3)CN2C1=O [Example 110, 2-methylpropyl [(2R,6S,12Z,13aS,14aR,16aS)-14a-{[(1-methylcyclopropyl)sulfonyl]carbamoyl}-5,16-dioxo-1,1′,2′,5,6,7,8,9,10,11,13a,14,14a,15,16,16a-hexadecahydrospiro[cyclopropa[e]pyrrolo[1,2-a][1,4]diazacyclopentadecine-2,3′-pyrano[2,3-c]quinolin]-6-yl]carbamate] | 47.7 | 0.806
10 | CC1(OC(=O)N[C@H]2CCCCC/C=C\[C@@H]3C[C@@]3(C(=O)NS(=O)(=O)C3(C)CC3)NC(=O)[C@@H]3C[C@]4(CCc5c(c(C6CC6)nc6ccccc56)O4)CN3C2=O)CCC1 [Example 111, 1-methylcyclobutyl [(2R,6S,12Z,13aS,14aR,16aS)-5′-cyclopropyl-14a-{[(1-methylcyclopropyl)sulfonyl]carbamoyl}-5,16-dioxo-1,1′,2′,5,6,7,8,9,10,11,13a,14,14a,15,16,16a-hexadecahydrospiro[cyclopropa[e]pyrrolo[1,2-a][1,4]diazacyclopentadecine-2,3′-pyrano[2,3-c]quinolin]-6-yl]carbamate] | 0.685 | 0.011
11 | Cc1nc2ccccc2c2c1O[C@@]1(C[C@H]3C(=O)N[C@]4(C(=O)NS(=O)(=O)C5(C)CC5)C[C@H]4/C=C\CCCCC[C@H](NC(=O)OC4CC(F)(F)C4(F)F)C(=O)N3C1)CC2(F)F (stereo partly drawn) [Example 112, 2,2,3,3-tetrafluorocyclobutyl [(2S,6S,12Z,13aS,14aR,16aS)-1′,1′-difluoro-5′-methyl-14a-{[(1-methylcyclopropyl)sulfonyl]carbamoyl}-5,16-dioxo-1,1′,2′,5,6,7,8,9,10,11,13a,14,14a,15,16,16a-hexadecahydrospiro[cyclopropa[e]pyrrolo[1,2-a][1,4]diazacyclopentadecine-2,3′-pyrano[2,3-c]quinolin]-6-yl]carbamate] | 32 | 0.226
12 | Cc1nc2c(C(F)(F)F)cccc2c2c1O[C@]1(CC2)C[C@H]2C(=O)N[C@]3(C(=O)NS(=O)(=O)C4(C)CC4)C[C@H]3/C=C\CCCCC[C@H](NC(=O)OCC(C)C)C(=O)N2C1 [Example 113, 2-methylpropyl [(2R,6S,12Z,13aS,14aR,16aS)-5′-methyl-14a-{[(1-methylcyclopropyl)sulfonyl]carbamoyl}-5,16-dioxo-7′-(trifluoromethyl)-1,1′,2′,5,6,7,8,9,10,11,13a,14,14a,15,16,16a-hexadecahydrospiro[cyclopropa[e]pyrrolo[1,2-a][1,4]diazacyclopentadecine-2,3′-pyrano[2,3-c]quinolin]-6-yl]carbamate] | 3.95 | 0.298
13 | Cc1nc2c(C(F)(F)F)cccc2c2c1O[C@]1(CC2)C[C@H]2C(=O)N[C@]3(C(=O)NS(=O)(=O)C4(C)CC4)C[C@H]3/C=C\CCCCC[C@H](NC(=O)OC(C)C)C(=O)N2C1 [Example 114, propan-2-yl [(2R,6S,12Z,13aS,14aR,16aS)-5′-methyl-14a-{[(1-methylcyclopropyl)sulfonyl]carbamoyl}-5,16-dioxo-7′-(trifluoromethyl)-1,1′,2′,5,6,7,8,9,10,11,13a,14,14a,15,16,16a-hexadecahydrospiro[cyclopropa[e]pyrrolo[1,2-a][1,4]diazacyclopentadecine-2,3′-pyrano[2,3-c]quinolin]-6-yl]carbamate] | 3.53 | 0.308
14 | CCOC(=O)N[C@H]1CCCCC/C=C\[C@@H]2C[C@@]2(C(=O)NS(=O)(=O)C2(C)CC2)NC(=O)[C@@H]2C[C@]3(CCc4c(c(C)nc5ccccc45)O3)CN2C1=O [Example 115, ethyl [(2R,6S,12Z,13aS,14aR,16aS)-5′-methyl-14a-{[(1-methylcyclopropyl)sulfonyl]carbamoyl}-5,16-dioxo-1,1′,2′,5,6,7,8,9,10,11,13a,14,14a,15,16,16a-hexadecahydrospiro[cyclopropa[e]pyrrolo[1,2-a][1,4]diazacyclopentadecine-2,3′-pyrano[2,3-c]quinolin]-6-yl]carbamate] | 6.86 | 0.017
